Laboratory results as given in ChEMBL document CHEMBL4507317, “Data for DCP probe BAY-899” (2021).

Columns and labels:
[1] = target: 5-hydroxytryptamine receptor 2B (Homo sapiens, UniProt P41595); experiment: GPCRScan assay: inhibition of 5-HT2B; design: radioligand conc. used [nm] 1.0 – 2.0, parental cells stable HEK
[2] = target: 5-hydroxytryptamine receptor 2C (Homo sapiens, UniProt P28335); experiment: GPCRScan assay: inhibition of 5-HT2C; design: radioligand conc. used [nm] 1.0 – 2.5, parental cells HEK T
[3] = target: 5-hydroxytryptamine receptor 5A (Homo sapiens) (UniProt P47898); conditions: Compound concentration 10.0 uM
[4] = target: Beta-3 adrenergic receptor (Homo sapiens) (UniProt P13945); conditions: Compound concentration 10.0 uM
[5] = target: Adenosine receptor A2b (Homo sapiens) (UniProt P29275); experiment: A2B Eurofins Bayer panel; conditions: Compound concentration 10.0 uM
[6] = target: T1, Alpha-2A adrenergic receptor (Homo sapiens) (UniProt P08913); experiment: alpha 2A Eurofins Bayer panel; conditions: Compound concentration 10.0 uM
T1 sequence (whole entry): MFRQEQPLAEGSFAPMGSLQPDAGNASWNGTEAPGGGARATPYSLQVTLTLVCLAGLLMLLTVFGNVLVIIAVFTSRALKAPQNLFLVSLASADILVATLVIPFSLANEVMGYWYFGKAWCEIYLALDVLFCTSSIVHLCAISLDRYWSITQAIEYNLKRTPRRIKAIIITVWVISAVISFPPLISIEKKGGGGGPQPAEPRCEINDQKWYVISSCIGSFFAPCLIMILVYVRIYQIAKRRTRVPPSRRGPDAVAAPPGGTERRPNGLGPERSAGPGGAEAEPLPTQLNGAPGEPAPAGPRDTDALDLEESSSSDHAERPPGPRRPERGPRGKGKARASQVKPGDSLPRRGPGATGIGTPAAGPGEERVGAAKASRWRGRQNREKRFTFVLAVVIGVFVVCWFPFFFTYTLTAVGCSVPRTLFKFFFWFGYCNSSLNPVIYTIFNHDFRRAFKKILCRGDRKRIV

[7] = target: Beta-1 adrenergic receptor (Homo sapiens) (UniProt P08588); experiment: beta 1 Eurofins Bayer panel; conditions: Compound concentration 10.0 uM
[8] = target: Beta-2 adrenergic receptor (Homo sapiens) (UniProt P07550); experiment: beta 2 Eurofins Bayer panel; conditions: Compound concentration 10.0 uM
[9] = target: Melanocortin receptor 4 (Homo sapiens) (UniProt P32245); experiment: MC4 Eurofins Bayer panel; conditions: Compound concentration 10.0 uM
[10] = target: T2, Muscarinic acetylcholine receptor M4 (Homo sapiens) (UniProt P08173); experiment: M4 Eurofins Bayer panel; conditions: Compound concentration 10.0 uM
T2 sequence (whole entry): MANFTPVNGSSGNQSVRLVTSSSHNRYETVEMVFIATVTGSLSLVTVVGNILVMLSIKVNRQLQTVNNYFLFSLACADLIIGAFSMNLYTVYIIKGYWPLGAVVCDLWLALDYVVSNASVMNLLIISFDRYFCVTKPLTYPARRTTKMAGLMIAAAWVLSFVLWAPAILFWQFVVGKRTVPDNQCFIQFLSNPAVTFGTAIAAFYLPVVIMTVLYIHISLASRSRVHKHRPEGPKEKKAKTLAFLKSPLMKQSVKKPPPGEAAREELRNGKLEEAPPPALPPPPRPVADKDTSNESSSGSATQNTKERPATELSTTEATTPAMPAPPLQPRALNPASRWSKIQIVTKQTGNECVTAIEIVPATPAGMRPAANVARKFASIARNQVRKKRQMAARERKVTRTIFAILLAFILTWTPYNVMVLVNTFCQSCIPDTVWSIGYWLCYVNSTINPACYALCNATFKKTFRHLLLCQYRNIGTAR

[11] = target: Kappa-type opioid receptor (Homo sapiens, UniProt P41145); experiment: kappa (KOP) Eurofins Bayer panel; conditions: Compound concentration 10.0 uM
[12] = target: Mu-type opioid receptor (Homo sapiens) (UniProt P35372); experiment: mu (MOP) Eurofins Bayer panel; conditions: Compound concentration 10.0 uM
Chain of Mu-type opioid receptor (Homo sapiens) (P35372 whole entry): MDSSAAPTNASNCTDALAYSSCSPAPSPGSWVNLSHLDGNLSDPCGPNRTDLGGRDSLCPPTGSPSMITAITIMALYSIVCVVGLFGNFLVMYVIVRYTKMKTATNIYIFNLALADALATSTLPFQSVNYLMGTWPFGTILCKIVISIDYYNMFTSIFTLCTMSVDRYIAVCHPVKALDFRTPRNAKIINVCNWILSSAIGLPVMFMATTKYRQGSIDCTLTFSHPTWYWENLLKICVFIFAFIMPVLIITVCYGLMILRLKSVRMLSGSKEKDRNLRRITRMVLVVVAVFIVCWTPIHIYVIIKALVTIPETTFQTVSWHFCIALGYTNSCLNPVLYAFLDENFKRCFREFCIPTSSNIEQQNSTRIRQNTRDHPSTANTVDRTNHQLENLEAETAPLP

Chain of Adenosine receptor A2b (Homo sapiens) (P29275 whole entry): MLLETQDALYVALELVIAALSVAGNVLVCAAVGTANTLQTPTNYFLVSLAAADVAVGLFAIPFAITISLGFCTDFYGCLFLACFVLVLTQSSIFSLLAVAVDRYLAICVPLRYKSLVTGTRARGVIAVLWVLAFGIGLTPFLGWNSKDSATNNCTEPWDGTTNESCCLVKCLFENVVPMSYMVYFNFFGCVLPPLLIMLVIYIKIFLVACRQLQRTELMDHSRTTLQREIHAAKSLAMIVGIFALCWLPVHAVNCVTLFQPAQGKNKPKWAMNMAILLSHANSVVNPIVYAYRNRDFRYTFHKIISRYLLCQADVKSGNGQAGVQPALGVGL
Chain of Beta-2 adrenergic receptor (Homo sapiens) (P07550 whole entry, looked up): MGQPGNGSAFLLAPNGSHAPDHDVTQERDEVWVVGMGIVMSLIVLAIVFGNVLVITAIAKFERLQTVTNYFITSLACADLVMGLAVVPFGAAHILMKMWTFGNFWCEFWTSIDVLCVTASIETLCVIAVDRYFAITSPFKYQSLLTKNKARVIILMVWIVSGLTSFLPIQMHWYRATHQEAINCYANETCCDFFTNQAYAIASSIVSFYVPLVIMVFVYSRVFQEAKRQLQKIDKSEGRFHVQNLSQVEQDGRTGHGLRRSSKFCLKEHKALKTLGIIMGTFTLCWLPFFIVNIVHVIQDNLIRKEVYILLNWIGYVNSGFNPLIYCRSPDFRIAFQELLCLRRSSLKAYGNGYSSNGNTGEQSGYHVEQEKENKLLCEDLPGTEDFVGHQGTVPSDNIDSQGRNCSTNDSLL
Chain of Kappa-type opioid receptor (P41145 whole entry): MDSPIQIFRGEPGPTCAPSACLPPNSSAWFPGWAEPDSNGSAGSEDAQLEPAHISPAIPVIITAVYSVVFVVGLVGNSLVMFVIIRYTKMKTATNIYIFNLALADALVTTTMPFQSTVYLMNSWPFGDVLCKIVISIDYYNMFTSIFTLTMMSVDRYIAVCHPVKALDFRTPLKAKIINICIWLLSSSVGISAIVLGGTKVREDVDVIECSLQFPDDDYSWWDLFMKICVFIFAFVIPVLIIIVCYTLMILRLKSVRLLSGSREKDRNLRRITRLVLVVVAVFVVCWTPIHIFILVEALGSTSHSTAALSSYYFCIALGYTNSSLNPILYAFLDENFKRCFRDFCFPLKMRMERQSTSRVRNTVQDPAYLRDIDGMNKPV
Chain of Beta-1 adrenergic receptor (Homo sapiens) (P08588 whole entry, looked up): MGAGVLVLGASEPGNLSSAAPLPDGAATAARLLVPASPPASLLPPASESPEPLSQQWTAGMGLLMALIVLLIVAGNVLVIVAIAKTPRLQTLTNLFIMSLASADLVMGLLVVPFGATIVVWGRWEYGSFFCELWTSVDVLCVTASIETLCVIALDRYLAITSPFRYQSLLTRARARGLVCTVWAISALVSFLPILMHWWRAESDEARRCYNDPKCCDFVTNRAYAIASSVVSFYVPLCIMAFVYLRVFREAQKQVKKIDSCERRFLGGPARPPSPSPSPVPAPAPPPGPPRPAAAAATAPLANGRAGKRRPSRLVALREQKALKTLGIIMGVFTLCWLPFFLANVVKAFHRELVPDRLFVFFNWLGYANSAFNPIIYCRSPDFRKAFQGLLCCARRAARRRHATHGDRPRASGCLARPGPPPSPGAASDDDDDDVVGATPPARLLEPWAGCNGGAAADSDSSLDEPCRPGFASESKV
Chain of Melanocortin receptor 4 (Homo sapiens) (P32245 whole entry): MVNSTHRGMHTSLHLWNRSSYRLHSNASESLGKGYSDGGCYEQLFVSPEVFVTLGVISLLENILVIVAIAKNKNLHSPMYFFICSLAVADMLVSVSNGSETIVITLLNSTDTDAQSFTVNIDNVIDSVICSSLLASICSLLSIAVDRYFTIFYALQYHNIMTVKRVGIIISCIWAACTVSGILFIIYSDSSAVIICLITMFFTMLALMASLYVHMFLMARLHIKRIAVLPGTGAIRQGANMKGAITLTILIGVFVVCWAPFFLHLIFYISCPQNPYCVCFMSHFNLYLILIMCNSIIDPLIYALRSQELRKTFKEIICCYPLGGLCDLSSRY
Chain of 5-hydroxytryptamine receptor 2B (P41595 whole entry): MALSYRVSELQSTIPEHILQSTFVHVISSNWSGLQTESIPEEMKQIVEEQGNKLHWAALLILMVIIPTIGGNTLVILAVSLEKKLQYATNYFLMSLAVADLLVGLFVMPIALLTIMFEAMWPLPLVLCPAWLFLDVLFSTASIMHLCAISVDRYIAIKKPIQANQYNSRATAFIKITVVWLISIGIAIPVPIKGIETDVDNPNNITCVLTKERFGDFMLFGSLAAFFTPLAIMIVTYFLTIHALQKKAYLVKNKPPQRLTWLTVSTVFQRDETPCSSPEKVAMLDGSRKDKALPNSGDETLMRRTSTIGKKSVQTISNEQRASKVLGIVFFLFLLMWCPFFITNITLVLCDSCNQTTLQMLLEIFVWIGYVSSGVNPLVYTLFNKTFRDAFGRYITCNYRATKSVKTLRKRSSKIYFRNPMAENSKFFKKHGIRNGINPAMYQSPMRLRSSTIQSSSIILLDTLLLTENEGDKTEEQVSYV
Chain of 5-hydroxytryptamine receptor 2C (P28335 whole entry): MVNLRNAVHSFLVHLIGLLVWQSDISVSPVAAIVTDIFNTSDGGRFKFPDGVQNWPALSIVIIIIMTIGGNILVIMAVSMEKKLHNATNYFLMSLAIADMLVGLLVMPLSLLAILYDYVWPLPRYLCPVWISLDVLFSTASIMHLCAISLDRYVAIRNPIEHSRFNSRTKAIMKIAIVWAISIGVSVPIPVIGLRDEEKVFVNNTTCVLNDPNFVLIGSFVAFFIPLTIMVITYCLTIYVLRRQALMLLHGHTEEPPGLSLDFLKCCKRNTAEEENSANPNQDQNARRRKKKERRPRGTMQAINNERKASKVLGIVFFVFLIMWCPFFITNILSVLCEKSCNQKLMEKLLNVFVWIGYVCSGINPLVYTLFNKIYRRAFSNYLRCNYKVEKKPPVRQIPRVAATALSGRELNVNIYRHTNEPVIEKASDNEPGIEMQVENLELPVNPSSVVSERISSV
Chain of Beta-3 adrenergic receptor (Homo sapiens) (P13945 whole entry, looked up): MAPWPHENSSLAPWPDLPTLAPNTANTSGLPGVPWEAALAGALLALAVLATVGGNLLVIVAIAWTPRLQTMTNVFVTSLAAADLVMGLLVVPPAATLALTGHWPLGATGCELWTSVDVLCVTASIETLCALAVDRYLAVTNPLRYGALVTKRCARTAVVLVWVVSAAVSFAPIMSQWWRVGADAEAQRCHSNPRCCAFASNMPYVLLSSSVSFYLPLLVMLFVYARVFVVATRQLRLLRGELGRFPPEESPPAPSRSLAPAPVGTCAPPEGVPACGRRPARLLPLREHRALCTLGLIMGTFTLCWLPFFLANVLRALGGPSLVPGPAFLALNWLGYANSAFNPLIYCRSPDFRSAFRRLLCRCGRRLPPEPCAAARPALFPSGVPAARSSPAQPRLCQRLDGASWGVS
Chain of 5-hydroxytryptamine receptor 5A (Homo sapiens) (P47898 whole entry): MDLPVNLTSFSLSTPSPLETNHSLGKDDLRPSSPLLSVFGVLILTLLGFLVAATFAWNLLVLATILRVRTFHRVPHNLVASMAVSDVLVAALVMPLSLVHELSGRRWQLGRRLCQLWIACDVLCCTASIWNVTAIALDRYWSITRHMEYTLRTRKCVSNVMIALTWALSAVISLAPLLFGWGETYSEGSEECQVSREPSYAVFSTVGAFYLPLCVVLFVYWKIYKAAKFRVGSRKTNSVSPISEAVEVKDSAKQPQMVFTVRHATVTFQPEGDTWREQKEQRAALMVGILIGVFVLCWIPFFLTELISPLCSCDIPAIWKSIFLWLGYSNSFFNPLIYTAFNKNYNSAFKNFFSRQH

Compound	Ki [1]	Ki [2]	inhibition [3]	inhibition [4]	Activation (% of control) [5]	Inhibition (% of control) [5]	Activation (% of control) [6]	Inhibition (% of control) [6]	Activation (% of control) [7]	Inhibition (% of control) [7]	Activation (% of control) [8]	Inhibition (% of control) [8]	Activation (% of control) [9]	Inhibition (% of control) [9]	Activation (% of control) [10]	Inhibition (% of control) [10]	Activation (% of control) [11]	Inhibition (% of control) [11]	Activation (% of control) [12]	Inhibition (% of control) [12]
O=C(Nc1ccc(Oc2ccc(F)cc2)cc1)N1CCc2ncccc2[C@H]1c1ccc(F)cc1 [BAY-897]	5.25 µM	1.08 µM	7.18%	29.4%	–	–	–	–	–	–	–	–	–	–	–	–	–	–	–	–
O=C(Nc1cnc(Oc2ccc(F)cc2)nc1)N1CCc2ncccc2[C@@H]1c1ccc(F)cc1 [BAY-899]	–	–	–	–	-1%	16%	-2%	-16%	-1%	13%	-3%	26%	-2%	11%	-6%	2%	56%	-10%	56%	8%
